Reference: patent publication US20260317333A1, “Heteroaryl Compounds as Ligand Directed Degraders of IRAK4” (Celgene Corporation, priority 2023, published 2026)
Counter-ions that a name gives are not always drawn.

How the values were obtained:
IRAK4 [1] = molecular target: T1, IRAK4 (Homo sapiens, UniProt Q9NWZ3); assay: IRAK4 PhosphoSens Biochemical Assay (BIOCHEM); settings: 200 μM ATP; 10 μM peptide substrate AQT0326; 1 nM IRAK4; room temperature; 240 minutes
T1 sequence (Q9NWZ3 1-460): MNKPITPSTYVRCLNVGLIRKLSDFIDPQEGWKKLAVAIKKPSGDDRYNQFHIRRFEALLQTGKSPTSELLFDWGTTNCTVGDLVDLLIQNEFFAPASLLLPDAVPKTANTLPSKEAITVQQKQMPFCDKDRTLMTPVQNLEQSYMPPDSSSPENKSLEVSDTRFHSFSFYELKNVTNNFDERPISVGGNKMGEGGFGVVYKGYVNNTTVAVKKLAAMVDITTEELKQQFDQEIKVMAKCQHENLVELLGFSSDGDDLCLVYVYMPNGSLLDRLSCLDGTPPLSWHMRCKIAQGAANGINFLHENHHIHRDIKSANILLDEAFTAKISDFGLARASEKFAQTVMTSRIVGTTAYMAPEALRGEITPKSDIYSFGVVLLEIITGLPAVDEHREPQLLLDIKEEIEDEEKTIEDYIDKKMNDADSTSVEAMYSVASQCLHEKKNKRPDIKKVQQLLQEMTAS
Method: The PhosphoSens® biochemical assay was performed as described by the vendor (AssayQuant Technologies Inc. Marlborough, MA). A 1.25× stock solution of IRAK4 (PV4002, ThermoFisher Scientific, Waltham, MA) and a 5× stock solution of ATP and Sox conjugated peptide substrate, AQT0326 (CSKS-AQT0326B, AssayQuant Technologies), were prepared in 1× kinase reaction buffer consisting of 50 mM HEPES, pH 7.5, 0.01% Brij-35, 0.5 mM EGTA, 20 mM MgCl2 and 1 mM DTT. 10 μL of the ATP and substrate solution mix, for a final concentration of 200 μM ATP and 10 μM peptide substrate, was added to a Corning 3574 384-well, white, non-binding surface microtiter plate containing 0.5 μL of serially diluted test compounds prepared in DMSO. The reactions were started with the addition of 40 μL of the enzyme solution, for a final IRAK4 concentration of 1 nM, and monitored every 71 seconds for 240 minutes at λEX 360/λEM 485 in a BioTek Synergy H4 plate reader (Agilent Technologies, Santa Clara, CA) at room temperature. The initial linear portions of the progress curves were fit according to a linear equation to yield the slopes and converted to % inhibition based on a value of 100% activity for the no inhibitor treated control. IC50 values of each compound were obtained by fitting the % inhibition-compound concentration curves using Dotmatics software (Dotmatics, Bishops Stortford, Hertfordshire, England).

IRAK4 [2] = molecular target: T1, IRAK4; assay: ALE THP1 HTRF (IRAK4 degradation in THP1 cells, HTRF with anti-IRAK4 antibodies); assay type: cell-based; set-up: THP1 Homogeneous Time Resolved Fluorescence (ALE THP1 HTRF) Procedure; endogenous in cells; host or cells: THP1; settings: THP1 cell lysate; for DC50: read-out: ALE THP1 HTRF EC50
Method: Cell culture media was prepared in a tissue culture hood in a sterile environment by adding 10% FBS and 1% Penicillin Streptomycin to 500 mL no phenol red RPMI 1640 media. The media was filtered through a Nalgene Bottle Top Filter and stored at 4° C.
For Homogenous Time Resolved Fluorescence (HTRF) assays, a Cisbio HTRF kit was used, which included: Lysis Buffer #1 4×, Blocking Reagent #3 100×, 20× Antibody 1 (Anti-IRAK4 d2), 20× Antibody 2 (Anti-IRAK4 k), and Detection Buffer.
4× Lysis Buffer was stored at 4° C. For use as 1× Lysis buffer, the 4× solution was diluted with de-ionized water (distilled water, Gibco Cat. #15230279) and 100× Blocking Reagent in a 1:3:0.04 volume ratio.
20× Antibody Solution aliquots were stored at −80° C. and the Detection Buffer was stored at 4° C. For use as a 1× Antibody Solution, the 20× Antibody Solution aliquot was diluted with Detection Buffer in a 1:19 volume ratio.
Cells were lysed at room temperature for 45 min with shaking. A BCA protein assay was performed and normalization was conducted to the desired total protein concentration with 1× lysis buffer. Next, 1× Antibody Solutions were prepared by adding 380 μL Detection Buffer to 20 μL 20× Antibody Solution aliquots and mixing well. 1× Antibody Solutions were combined 1:1 and briefly vortexed. For control wells, 20 μL 1× anti IRAK4-k Antibody Solution was saved. The 384-well plate (ProxiPlate-384 Plus, Perkin Elmer Cat. #6008289) was loaded by adding 4 μL of the mixed Antibody Solution to empty wells using a single channel repeater. Using a multi-channel repeater, 16 μL lysate was added per well, and any bubbles that were formed were popped with 20 μL pipette tips and Kimwipe edges. In column 10, triplicates of each control were prepared. In wells A10, B10, and C10, buffer control was prepared by adding 16 μL Lysis Buffer and 4 μL Detection Buffer. In wells D10, E10, and F10, cryptate control was prepared by adding 16 μL Lysis Buffer, 2 μL Detection Buffer, and 2 μL 1× anti-IRAK4-k Antibody Solution. In wells G10, H10, and I10, a negative control was prepared by adding 16 μL Lysis Buffer and 4 μL mixed Antibody Solution. The plate was sealed with a clear seal and covered with an aluminum lid. The plate was spun down at 800 g for 5 min and incubated in the dark at room temperature overnight. The next day, the plate was spun down at 800 g for 5 min. The samples were analyzed by a plate reader (Envision, PerkinElmer) using the Desnor 384 HTRF program.

IC50 (IRAK4 [1]) [nM]	ALE THP1 HTRF YMIN (IRAK4 [2]) [%]	DC50 (IRAK4 [2]) [nM]	Structure (SMILES)
0.4	10	7	N[C@@H]1C[C@@H](F)CN(c2ccn3ncc(C(=O)Nc4cn([C@H]5CC[C@H](C(=O)N6CCC(CNc7cccc(C8CCC(=O)NC8=O)c7)CC6)CC5)nc4C(F)(F)F)c3n2)C1 (stereo partly drawn) [Compound P-1, N-[1-[4-[4-[[3-(2,6-dioxo-3-piperidyl)anilino]methyl]piperidine-1-carbonyl]cyclohexyl]-3-(trifluoromethyl)pyrazol-4-yl]-5-[(3R,5R)-3-amino-5-fluoro-1-piperidyl]pyrazolo[1,5-a]pyrimidine-3-carboxamide hydrochloride salt]
0.3	68	96	N[C@@H]1C[C@@H](F)CN(c2ccn3ncc(C(=O)Nc4cn([C@H]5CC[C@H](C(=O)N6CCC(CNc7ccc(C8CCC(=O)NC8=O)cc7)CC6)CC5)nc4C(F)(F)F)c3n2)C1 (stereo partly drawn) [Compound P-2, N-[1-[4-[4-[[4-(2,6-Dioxo-3-piperidyl)anilino]methyl]piperidine-1-carbonyl]cyclohexyl]-3-(trifluoromethyl)pyrazol-4-yl]-5-[(3R,5R)-3-amino-5-fluoro-1-piperidyl]pyrazolo[1,5-a]pyrimidine-3-carboxamide hydrochloride]
0.3	81	177	N[C@@H]1C[C@@H](F)CN(c2ccn3ncc(C(=O)Nc4cn([C@H]5CC[C@H](CN6CCC(CNc7ccc(C8CCC(=O)NC8=O)cc7)CC6)CC5)nc4C(F)(F)F)c3n2)C1 (stereo partly drawn) [Compound P-3]
0.3	52	> 10000	N[C@@H]1C[C@@H](F)CN(c2ccn3ncc(C(=O)Nc4cn([C@H]5CC[C@H](C(=O)N6CCC(Nc7ccc(C8CCC(=O)NC8=O)cc7)CC6)CC5)nc4C(F)(F)F)c3n2)C1 (stereo partly drawn) [Compound P-7]
0.3	86	> 10000	N[C@@H]1C[C@@H](F)CN(c2ccn3ncc(C(=O)Nc4cn([C@H]5CC[C@H](C(=O)N6CCC(Nc7cccc(C8CCC(=O)NC8=O)c7)CC6)CC5)nc4C(F)(F)F)c3n2)C1 (stereo partly drawn) [Compound P-9]
0.6	20	964	N[C@@H]1C[C@@H](F)CN(c2ccn3ncc(C(=O)Nc4cn([C@H]5CC[C@H](CN6CCN(c7ccc(C8CCC(=O)NC8=O)cc7)CC6)CC5)nc4C(F)(F)F)c3n2)C1 (stereo partly drawn) [Compound P-10]
0.4	19	15	N[C@@H]1C[C@@H](F)CN(c2ccn3ncc(C(=O)Nc4cn([C@H]5CC[C@H](CCN6CCN(c7ccc(C8CCC(=O)NC8=O)cc7)CC6)CC5)nc4C(F)(F)F)c3n2)C1 (stereo partly drawn) [Compound P-11, 5-((3R,5R)-3-Amino-5-fluoropiperidin-1-yl)-N-(1-((1r,4r)-4-(2-(4-(4-(2,6-dioxopiperidin-3-yl)phenyl)piperazin-1-yl)ethyl)cyclohexyl)-3-(trifluoromethyl)-1H-pyrazol-4-yl) pyrazolo[1,5-a]pyrimidine-3-carboxamide hydrochloride]
